Data: patent US9073955B2, “2-amino-4-arylthiazole compounds as TRPA1 antagonists” (Glenmark Pharmaceuticals, S.A., priority 2010, dated 2015)
Read-outs that look alike come from different tables or passages of the source.

Experiments:
Human TRPA1 = target: T1, Human TRPA1 (Homo sapiens, UniProt O75762); assay: 45Calcium uptake assay: inhibition of AITC induced cellular uptake of radioactive calcium; type: cell-based; details: human TRPA1 expressing CHO cells, AITC 30 μM; for inhibition at 10 µM: read-out: Percentage inhibition at 10.0 μM; for inhibition at 1 µM: read-out: Percentage inhibition at 1.0 μM
T1 construct: expressed in transfected cells; host or cells: CHO cells (grown with 400 μg/ml G-418)
T1 sequence (O75762 whole entry): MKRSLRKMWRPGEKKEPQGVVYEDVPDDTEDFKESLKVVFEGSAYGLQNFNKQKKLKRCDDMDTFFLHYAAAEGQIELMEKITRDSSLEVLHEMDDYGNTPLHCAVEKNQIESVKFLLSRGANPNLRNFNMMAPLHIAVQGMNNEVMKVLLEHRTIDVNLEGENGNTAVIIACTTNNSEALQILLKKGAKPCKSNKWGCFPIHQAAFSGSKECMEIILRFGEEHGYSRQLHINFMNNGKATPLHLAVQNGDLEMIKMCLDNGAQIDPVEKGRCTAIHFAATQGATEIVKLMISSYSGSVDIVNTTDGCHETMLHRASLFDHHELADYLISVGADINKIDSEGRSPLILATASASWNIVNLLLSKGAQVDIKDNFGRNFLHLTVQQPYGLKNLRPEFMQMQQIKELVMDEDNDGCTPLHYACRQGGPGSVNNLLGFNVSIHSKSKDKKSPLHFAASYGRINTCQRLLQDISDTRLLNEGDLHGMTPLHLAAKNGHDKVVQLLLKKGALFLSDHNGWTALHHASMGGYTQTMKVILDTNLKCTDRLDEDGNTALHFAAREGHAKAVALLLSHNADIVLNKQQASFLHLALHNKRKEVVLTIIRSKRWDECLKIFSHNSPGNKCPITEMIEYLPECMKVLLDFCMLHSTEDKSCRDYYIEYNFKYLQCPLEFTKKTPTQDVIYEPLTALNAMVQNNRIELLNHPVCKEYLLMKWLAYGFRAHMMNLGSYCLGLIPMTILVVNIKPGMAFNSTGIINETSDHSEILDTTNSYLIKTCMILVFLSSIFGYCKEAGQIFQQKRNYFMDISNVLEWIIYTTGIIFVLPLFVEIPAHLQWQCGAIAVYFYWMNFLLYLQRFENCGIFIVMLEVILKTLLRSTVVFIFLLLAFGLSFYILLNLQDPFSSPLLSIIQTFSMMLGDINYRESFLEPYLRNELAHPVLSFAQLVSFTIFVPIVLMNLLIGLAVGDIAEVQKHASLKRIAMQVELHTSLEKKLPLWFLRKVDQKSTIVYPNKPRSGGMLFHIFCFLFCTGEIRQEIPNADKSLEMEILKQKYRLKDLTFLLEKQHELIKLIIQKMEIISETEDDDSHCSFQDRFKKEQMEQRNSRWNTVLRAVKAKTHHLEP
Procedure: The illustrative examples of the present invention were screened for TRPA1 activity according to a modified procedure described in (a) Tóth, A. et al. Life Sciences, 2003, 73, 487-498. ([…]. et al, Proc. Natl. Acad. Sci. U.S.A., 2007, 104, 13525-13530. The screening of the compounds can be carried out by other methods and procedures known to persons skilled in the art. Screening for TRPA1 Antagonist Using the ^45Calcium Uptake Assay: The inhibition of TRPA1 receptor activation was measured as inhibition of allyl isothiocyanate (AITC) induced cellular uptake of radioactive calcium. Test compounds were dissolved in 100% DMSO to prepare 10 mM stock and then diluted using plain medium with 0.1% BSA and 1.8 mM CaCl2 to get the desired concentration. The final concentration of DMSO in the reaction was 0.5% (v/v). Human TRPA1 expressing CHO cells were grown in F-12 DMEM medium with 10% FBS, 1% penicillin-streptomycin solution, and 400 μg/ml of G-418. Cells were seeded 24 h prior to the assay in 96 well plates so as to get 50,000 cells per well on the day of experiment. Cells were treated with the test compounds for 10 minutes followed by the addition of AITC at a final concentration of 30 μM and 5 μCi/ml^45Ca^+2 for 3 minutes. Cells were washed and lysed using a buffer containing 1% Triton X-100, 0.1% deoxycholate and 0.1% SDS. Radioactivity in the lysate was measured in a Packard TopCount after addition of liquid scintillant. (Toth et al, Life Sciences (2003) 73, 487-498; McNamara C R et al, Proceedings of the National Academy of Sciences, (2007) 104, 13525-13530). Concentration response curves were plotted as a % of maximal response obtained in the absence of test antagonist. IC50 values can be calculated from concentration response curve by nonlinear regression analysis using GraphPad PRISM software.

[1] = Determination of solubility by shake flask method (water); type: physicochemical; details: for solubility at 15 min: thermodynamic from solid, water, 37° C., shake flask; for aqueous solubility over the parent thiazole acetamide: compared with the corresponding parent compound of formula (1)
Procedure: About 1 mg of test substance was taken in test tube and water was added in the increment of 1 ml with shaking after addition of media (water). Solubility was observed visually also. After completion of addition of 10 ml volume of media (water), test tube containing sample solution were put on a mechanical shaker set at 37° C. and 200 rpm for shaking up to 15 minute. After shaking, content of flask was filtered through 0.45μ filter. This filtered solution is analyzed using HPLC method for quantification. A sample solution of 1 mg in 10 ml of DMSO is used as reference standard for quantifying dissolved test substance in media. Solubility is expressed as mcg/ml.
Aqueous solubility of ‘P’ substituted thiazole compounds and the parent thiazole compounds were determined using the above described procedure and the results are given Table 3.

[2] = Rat pharmacokinetic (PK) study, oral suspension; type: in vivo, male rats (Sprague Dawley); details: for pharmacokinetic properties (Cmax and AUC) compared to the parent thiazole acetamide: compared with the corresponding parent compound of formula (1); for Cmax / AUC(0-t): rat, plasma, parent thiazole compound of the example, male Sprague Dawley rats, oral suspension; for AUC(0-t): read-out: AUC0-24
Procedure: PK values were obtained in male rats (strain: Sprague Dawley) orally dosed with the compounds of the present invention as suspension. Accurately weighed quantity of compound of present invention (corrected for purity and salt factor) was transferred into a clean and dry mortar. To this mortar was added 2.5 μL/mL Tween 80 and triturated until the compound gets properly wet. To this, 0.5% (w/v) methyl cellulose suspension was added in geometric proportions and triturated thoroughly to form a uniform suspension.
Animals were provided with food and water ad libitum through out the study period. Animals were dosed orally with the compounds using a gavage needle at 10 mL/kg body weight. Blood samples (250 μl approx.) were collected from male Sprague Dawley retro orbital sinus using rat capillary tubes into 0.6 mL eppendorf tubes with tripotassium ethylenediaminetetraacetic acid (K3 EDTA) (25 μL) as anticoagulant. Samples were collected at 0.5, 1.0, 2.0, 4.0, 6.0, 8.0, 12.0 and 24.0 hr post dosing for compounds. Then samples were centrifuged immediately at 1000 g for 10 min. at 4° C. Plasma samples were separated and stored at −70° C. till analysis. Samples were processed and analyzed using LCMS/MS. Pharmacokinetic parameters were calculated using Winonlin software. Table 4 provides the pK values (Cmax, AUC) obtained in these studies.

[3] = ‘P’ substituted thiazole compound
[4] = parent thiazole compound of the example

Cc1oc2c(c1CC(=O)/N=c1\scc(-c3ccc(OC(F)(F)F)c(Cl)c3)n1COP(=O)(O)O)c(=O)n(C)c(=O)n2C [Example 25, [4-[3-Chloro-4-(trifluoromethoxy)phenyl]-2-{[(1,3,6-trimethyl-2,4-dioxo-1,2,3,4-tetrahydrofuro[2,3-d]pyrimidin-5-yl)acetyl]imino}-1,3-thiazol-3 (2H)-yl]methyl dihydrogen phosphate]
Percentage inhibition at 1.0 μM (Human TRPA1): 46.47% | inhibition at 10 µM (Human TRPA1; CHO, 10.0 μM): 97.8% | IC50 (Human TRPA1): > 500 nM | solubility at 15 min [1, 3]: > 10 µg/mL | pharmacokinetic properties (Cmax and AUC) compared to the parent thiazole acetamide [2]: better pharmacokinetic properties

Cn1c(=O)c2c(CC(=O)Nc3nc(-c4ccc(F)c(C(F)(F)F)c4F)cs3)csc2n(C)c1=O [parent of Example 10, N-{4-[2,4-difluoro-3-(trifluoromethyl)phenyl]-1,3-thiazol-2-yl}-2-(1,3-dimethyl-2,4-dioxo-1,2,3,4-tetrahydrothieno[2,3-d]pyrimidin-5-yl)acetamide, reference compound]
solubility at 15 min [1, 4]: < 0.2 µg/mL | Cmax [2]: < 250 ng/mL | AUC(0-t) [2]: < 4000 ng·h/mL

Cn1nc2c(c1CC(=O)Nc1nc(-c3ccc(F)c(C(F)(F)F)c3F)cs1)c(=O)n(C)c(=O)n2C [parent of Example 28, N-(4-(2,4-difluoro-3-(trifluoromethyl)phenyl)thiazol-2-yl)-2-(2,5,7-trimethyl-4,6-dioxo-4,5,6,7-tetrahydro-2H-pyrazolo[3,4-d]pyrimidin-3-yl)acetamide, reference compound]
solubility at 15 min [1, 4]: < 0.1 µg/mL | Cmax [2]: < 500 ng/mL | AUC(0-t) [2]: < 7000 ng·h/mL

Cc1oc2c(c1CC(=O)Nc1nc(-c3ccc(OC(F)(F)F)c(Cl)c3)cs1)c(=O)n(C)c(=O)n2C [parent of Example 25, N-{4-[3-chloro-4-(trifluoromethoxy)phenyl]-1,3-thiazol-2-yl}-2-(1,3,6-trimethyl-2,4-dioxo-1,2,3,4-tetrahydrofuro[2,3-d]pyrimidin-5-yl)acetamide, reference compound]
solubility at 15 min [1, 4]: < 1.1 µg/mL | Cmax [2]: < 250 ng/mL | AUC(0-t) [2]: < 3000 ng·h/mL

Cn1nc2c(c1CC(=O)/N=c1\scc(-c3ccc(F)c(C(F)(F)F)c3F)n1COP(=O)(O)O)c(=O)n(C)c(=O)n2C [Example 28, 4-(2,4-Difluoro-3-(trifluoromethyl)phenyl)-2-((2-(2,5,7-trimethyl-4,6-dioxo-4,5,6,7-tetrahydro-2H-pyrazolo[3,4-d]pyrimidin-3-yl)acetyl)imino)thiazol-3 (2H)-yl)methyl dihydrogen phosphate]
inhibition at 1 µM (Human TRPA1; CHO): 29.5% | inhibition at 10 µM (Human TRPA1; CHO, 10.0 μM): 92.4% | IC50 (Human TRPA1): > 500 nM | solubility at 15 min [1, 3]: > 30 µg/mL | pharmacokinetic properties (Cmax and AUC) compared to the parent thiazole acetamide [2]: better pharmacokinetic properties

Cc1oc2c(c1CC(=O)/N=c1\scc(-c3ccc(OC(F)(F)F)c(Cl)c3)n1COP(=O)([O-])[O-])c(=O)n(C)c(=O)n2C.[Na+].[Na+] [Example 26, Disodium[4-[3-chloro-4-(trifluoromethoxy)phenyl]-2-{[(1,3,6-trimethyl-2,4-dioxo-1,2,3,4-tetrahydrofuro[2,3-d]pyrimidin-5-yl)acetyl]imino}-1,3-thiazol-3 (2H)-yl]methyl phosphate]
Percentage inhibition at 1.0 μM (Human TRPA1): 12.64% | Percentage inhibition at 10.0 μM (Human TRPA1; 10.0 μM): 96.25% | solubility at 15 min [1, 3]: > 75 µg/mL

Cn1c(=O)c2c(CC(=O)/N=c3\scc(-c4ccc(C(F)(F)F)c(F)c4)n3COP(=O)(O)O)csc2n(C)c1=O [Example 11, [2-{[(1,3-Dimethyl-2,4-dioxo-1,2,3,4-tetrahydrothieno[2,3-d]pyrimidin-5-yl)acetyl]imino}-4-[3-fluoro-4-(trifluoromethyl)phenyl]-1,3-thiazol-3 (2H)-yl]methyl dihydrogen phosphate]
inhibition at 1 µM (Human TRPA1): 53.4% | inhibition at 10 µM (Human TRPA1; 10.0 μM): 99.8% | IC50 (Human TRPA1): > 500 nM | aqueous solubility over the parent thiazole acetamide [1]: better aqueous solubility | pharmacokinetic properties (Cmax and AUC) compared to the parent thiazole acetamide [2]: better pharmacokinetic properties

Cl.Cn1c(=O)c2c(CC(=O)/N=c3\scc(-c4ccc(F)c(C(F)(F)F)c4F)n3COC(=O)C3CCNCC3)csc2n(C)c1=O [Example 10, [4-[2,4-Difluoro-3-(trifluoromethyl)phenyl]-2-{[(1,3-dimethyl-2,4-dioxo-1,2,3,4-tetrahydrothieno[2,3-d]pyrimidin-5-yl)acetyl]imino}-1,3-thiazol-3(2H)-yl]methyl piperidine-4-carboxylate hydrochloride]
inhibition at 1 µM (Human TRPA1): 90.5% | inhibition at 10 µM (Human TRPA1; 10.0 μM): 89.3% | IC50 (Human TRPA1): 100 to 500 nM | aqueous solubility over the parent thiazole acetamide [1]: better aqueous solubility | solubility at 15 min [1, 3]: > 29 µg/mL
